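Interpolation was linear, between the two tested concentrations surrounding the appropriate level; five concentrations were tested over 48 hours in 96-well plates. GI50: concentration for 50% inhibition of growth.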 The source made the active and inactive calls. No stated cut-off is given here; in the data, active = GI50 up to about 1.1 µM and inactive = higher.
Experiments:
Experiment in all cases: DTP human tumour cell line panel, 48 h
786-0 = system: 786-0
A498 = system: A498
A549 = system: A549
CAKI-1 = system: CAKI-1
DU-145 = system: DU-145
HCT-116 = system: HCT-116
HOP-92 = system: HOP-92
K562 = system: K562
MDA-N = system: MDA-N
MOLT-4 = system: MOLT-4
NCI-H522 = system: NCI-H522
NCI/ADR-RES = system: NCI/ADR-RES
PC-3 = system: PC-3
SF-539 = system: SF-539
SK-MEL-5 = system: SK-MEL-5
SN12C = system: SN12C
T47D = system: T47D
U-251 = system: U-251
UACC-257 = system: UACC-257
UO-31 = system: UO-31

Measured: GI50

Nc1nc(F)nc2c1ncn2C1OC(COP(=O)(O)O)C(O)C1O (stereo not given)
inactive: 786-0 39.5 µM | A498 146 µM | A549 40.7 µM | CAKI-1 8.17 µM | DU-145 9.57 µM | HCT-116 33.1 µM | HOP-92 7.38 µM | K562 111 µM | MDA-N 34 µM | MOLT-4 4.38 µM | NCI-H522 63.1 µM | NCI/ADR-RES 4.11 µM | PC-3 16.6 µM | SF-539 146 µM | SK-MEL-5 56.4 µM | SN12C 6.47 µM | T47D 78.7 µM | U-251 231 µM | UACC-257 146 µM | UO-31 13.2 µM

O=C1OC(CN2CCN(c3ccccc3)CC2)CN1C(=S)Nc1ccccc1 (stereo not given)
inactive: 786-0 > 100 µM | A498 > 100 µM | A549 > 100 µM | CAKI-1 > 100 µM | DU-145 > 100 µM | HCT-116 > 100 µM | HOP-92 > 100 µM | K562 61.4 µM | MDA-N > 100 µM | MOLT-4 > 100 µM | NCI-H522 > 100 µM | NCI/ADR-RES > 100 µM | PC-3 84.7 µM | SF-539 > 100 µM | SK-MEL-5 > 100 µM | SN12C > 100 µM | T47D > 100 µM | U-251 > 100 µM | UACC-257 > 100 µM | UO-31 > 100 µM

Clc1ccc(-c2nn3c(COc4cccc(OCc5nnc6sc(-c7ccc(Cl)cc7)nn56)c4)nnc3s2)cc1
inactive: 786-0 15.1 µM | A498 15.7 µM | A549 25.8 µM | CAKI-1 22 µM | DU-145 25.4 µM | HCT-116 18.6 µM | HOP-92 30.1 µM | K562 24.4 µM | MDA-N 15.7 µM | MOLT-4 14.3 µM | NCI-H522 22.8 µM | NCI/ADR-RES 36.9 µM | PC-3 33.1 µM | SF-539 26.9 µM | SK-MEL-5 15.2 µM | SN12C 12.6 µM | T47D 17.3 µM | U-251 24.3 µM | UACC-257 26.1 µM | UO-31 19.5 µM

COc1ccc(CC2NCCc3cc(OC)c(OC)cc32)cc1Br (stereo not given)
inactive: 786-0 39.4 µM | A498 30.1 µM | A549 56 µM | CAKI-1 19.7 µM | DU-145 > 100 µM | HCT-116 14.9 µM | HOP-92 15.1 µM | K562 16.6 µM | MDA-N 18.2 µM | MOLT-4 20.7 µM | NCI-H522 34.4 µM | NCI/ADR-RES 62.5 µM | PC-3 72.4 µM | SF-539 77.8 µM | SK-MEL-5 13 µM | SN12C 36.1 µM | T47D 27.9 µM | U-251 34.4 µM | UACC-257 17.3 µM | UO-31 28.2 µM

O=c1/c(=C/c2ccc([N+](=O)[O-])o2)sc2n1[C@@H](c1ccc3c(c1)OCO3)C=C(c1cc(F)c(Cl)cc1Cl)N=2
inactive: 786-0 9.51 µM | A498 56 µM | A549 16.4 µM | CAKI-1 13.7 µM | DU-145 21.6 µM | HCT-116 5.11 µM | HOP-92 12.6 µM | K562 5.09 µM | MDA-N 5.5 µM | MOLT-4 8.91 µM | NCI-H522 25.8 µM | NCI/ADR-RES 34.4 µM | PC-3 22 µM | SF-539 23.8 µM | SK-MEL-5 10.3 µM | SN12C 18 µM | T47D 17.3 µM | U-251 19.9 µM | UACC-257 17.2 µM | UO-31 16.7 µM

Clc1ccc(NCNC2Nc3ccccc3N2)cc1Cl
inactive: 786-0 66.8 µM | A498 > 100 µM | A549 56.9 µM | CAKI-1 34.6 µM | DU-145 > 100 µM | HCT-116 36.7 µM | HOP-92 48.4 µM | K562 12.4 µM | MDA-N 30.8 µM | MOLT-4 39.2 µM | NCI-H522 22.4 µM | NCI/ADR-RES 83.4 µM | PC-3 50.1 µM | SF-539 48.5 µM | SK-MEL-5 17.1 µM | SN12C 22.6 µM | T47D 12.6 µM | U-251 52.5 µM | UACC-257 > 100 µM | UO-31 27.4 µM

Cc1ccc(NC(=S)C#N)c(C)c1
inactive: 786-0 > 100 µM | A498 > 100 µM | A549 > 100 µM | CAKI-1 > 100 µM | DU-145 > 100 µM | HCT-116 > 78.7 µM | HOP-92 74.8 µM | K562 38.4 µM | MDA-N > 82.2 µM | MOLT-4 28.8 µM | NCI-H522 46.7 µM | NCI/ADR-RES 75.7 µM | PC-3 > 100 µM | SF-539 > 100 µM | SK-MEL-5 51.9 µM | SN12C > 100 µM | T47D 46 µM | U-251 > 86.3 µM | UACC-257 63.2 µM | UO-31 50 µM

Reference: ChEMBL document CHEMBL1201862, “PubChem BioAssay data set” (2004)
